Test results as given in patent US10155766B2, “Pyrazolopyrimidine antibacterial agents” (priority 2016, dated 2018).

What was measured:
[1] = test system: Burkholderia thailandensis (E 264); assay: microbe, parasite or virus in culture; format: cell-based; settings: for zone of inhibition at 100 µM / zone of inhibition at 500 µM / zone of inhibition at 1000 µM: Burkholderia thailandensis, read-out: Zone of inhibition (diameter, in millimeter) B. thailandensis; for zone of inhibition at 100 µM: Conc. 0.1 mM; for zone of inhibition at 500 µM: Conc. 0.5 mM; for zone of inhibition at 1000 µM: Conc. 1.0 mM
[2] = test system: Pseudomonas aeruginosa (ATCC 27853); assay: microbe, parasite or virus in culture; format: cell-based; settings: Pseudomonas aeruginosa, ATCC27853, read-out: Zone of inhibition (diameter, in millimeter) P. aeruginosa; for zone of inhibition at 100 µM: Conc. 0.1 mM; for zone of inhibition at 500 µM: Conc. 0.5 mM; for zone of inhibition at 1000 µM: Conc. 1.0 mM
BtIspD = molecular target: T1, BtIspD (Burkholderia thailandensis, UniProt Q2SWT6); format: binding
T1 construct: 6xHis (AVA0421 vector, 3C-cleavable) (N, cleaved yes); made in house; host or cells: E. coli BL21(DE3)R3 Rosetta Oxford
T1 sequence (Q2SWT6 1-236): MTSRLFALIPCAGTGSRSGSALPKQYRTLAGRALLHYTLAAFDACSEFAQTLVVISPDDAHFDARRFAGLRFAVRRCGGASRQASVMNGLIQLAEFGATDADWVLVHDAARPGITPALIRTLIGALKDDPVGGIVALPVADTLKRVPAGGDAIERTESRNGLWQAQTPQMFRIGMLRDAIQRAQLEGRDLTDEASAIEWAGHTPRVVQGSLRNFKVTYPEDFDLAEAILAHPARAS

SMILES | zone of inhibition at 100 µM [1] | zone of inhibition at 500 µM [1] | zone of inhibition at 1000 µM [1] | zone of inhibition at 100 µM [2] | zone of inhibition at 500 µM [2] | zone of inhibition at 1000 µM [2] | melting point | STD-NMR binding to BtIspD (in words) (BtIspD) | change of STD binding to BtIspD upon addition of CDP (BtIspD) | concentration at which inhibitory activity against B. thailandensis is shown [1]
Cn1ncc2c(NCCc3ccc(F)cc3)ncnc21 [Compound 23] | 0 mm | 12 mm | 22 mm | 0 mm | 9 mm | 17 mm | 106 to 107 °C |  |  | 
CC(C)Nc1ncnc2c1cnn2C [Compound 6] | 0 mm | 13 mm | 21 mm | 0 mm | 0 mm | 10 mm | 101 to 103 °C |  |  | 
CC(C)(C)n1ncc2c(NCc3cccc([N+](=O)[O-])c3)ncnc21 [Compound 15] | 0 mm | 12 mm | 16 mm | 0 mm | 13 mm | 17 mm | 135 to 137 °C |  |  | 
Cn1ncc2c(NCc3ccccc3)ncnc21 [Compound 9] | 0 mm | 0 mm | 12 mm | 0 mm | 0 mm | 0 mm |  |  |  | 
Cn1ncc2c(NCCc3c(F)cccc3Cl)ncnc21 [Compound 26] | 0 mm | 13 mm | 21 mm | 0 mm | 11 mm | 19 mm | 195 to 196 °C | strongest binders | large decrease | 
Cn1ncc2c(NCc3ccccc3F)ncnc21 [Compound 13] | 0 mm | 8 mm | 13 mm | 0 mm | 12 mm | 18 mm | 184 to 185 °C |  |  | 
C[C@H](Nc1ncnc2c1cnn2C)c1ccccc1 [Compound 10] | 0 mm | 11 mm | 19 mm | 0 mm | 8 mm | 14 mm | 201 to 203 °C |  |  | 
Cn1ncc2c(NCCc3ccccc3F)ncnc21 [Compound 21] | 0 mm | 12 mm | 16 mm | 0 mm | 8 mm | 16 mm | 139 to 140 °C |  |  | 
Cn1ncc2c(NCCc3ccccc3)ncnc21 [Compound 20] | 0 mm | 9 mm | 20 mm | 0 mm | 0 mm | 0 mm | 101 to 103 °C |  |  | 
CCOC(=O)CNc1ncnc2c1cnn2C [Compound 5] | 0 mm | 8 mm | 12 mm | 0 mm | 0 mm | 13 mm | 141 to 142 °C |  |  | 
CC(C)(C)n1ncc2c(NCCO)ncnc21 [Compound 4] | 0 mm | 8 mm | 12 mm | 0 mm | 12 mm | 20 mm | 75 to 77 °C |  |  | 
Cn1ncc2c(NCCc3ccc(Cl)cc3)ncnc21 [Compound 24] | 0 mm | 10 mm | 13 mm | 0 mm | 0 mm | 10 mm |  |  |  | 
Cn1ncc2c(NCCc3c[nH]c4ccccc34)ncnc21 |  |  |  |  |  |  | 183 to 185 °C |  |  | 
NC[C@H]1O[C@H](O[C@H]2[C@H](O)[C@@H](O[C@H]3O[C@H](CO)[C@@H](O)[C@H](N)[C@H]3O)[C@H](N)C[C@@H]2N)[C@H](O)[C@@H](O)[C@@H]1O [Kanamycin, reference compound] | 6 mm | 22 mm | 30 mm | 0 mm | 0 mm | 0 mm |  |  |  | 48.5 µg/mL
CC(C)(C)n1ncc2c(NCc3ccc(Cl)c(Cl)c3)ncnc21 [Compound 19] | 0 mm | 16 mm | 20 mm | 0 mm | 12 mm | 16 mm | 120 to 123 °C |  |  | 
Cn1ncc2c(NCCc3cccc(F)c3)ncnc21 [Compound 22] | 0 mm | 11 mm | 14 mm | 0 mm | 0 mm | 8 mm | 109 to 110 °C |  |  | 
CC(C)(C)n1ncc2c(NCCc3c(Cl)cccc3Cl)ncnc21 [Compound 28] | 0 mm | 11 mm | 18 mm | 0 mm | 0 mm | 0 mm | 154 to 156 °C |  |  | 
CC(C)(C)n1ncc2c(NCc3ccccc3)ncnc21 [Compound 11] | 0 mm | 12 mm | 18 mm | 0 mm | 0 mm | 0 mm | 158 to 160 °C |  |  | 
CC(C)(C)n1ncc2c(NCc3ccco3)ncnc21 [Compound 8] | 0 mm | 12 mm | 14 mm | 0 mm | 6 mm | 12 mm | 101 to 103 °C |  |  | 
CC(C)(C)n1ncc2c(NCCc3c(F)cccc3Cl)ncnc21 [Compound 27] | 0 mm | 12 mm | 16 mm | 0 mm | 0 mm | 0 mm | 140 to 142 °C | strongest binders | large decrease | 
Cn1ncc2c(NCc3ccco3)ncnc21 [Compound 7] | 0 mm | 0 mm | 20 mm | 0 mm | 0 mm | 0 mm | 141 to 143 °C |  |  | 
Cn1ncc2c(NCc3ccc(F)cc3)ncnc21 [Compound 16] | 0 mm | 9 mm | 18 mm | 0 mm | 12 mm | 18 mm |  |  |  | 
